Experimental data taken from article PMC12127288, “Engineering of antimicrobial peptide Brevinin-1pl: arginine, lysine, and histidine substitutions enhance antimicrobial-anticancer efficacy with reduced cytotoxicity” (Frontiers in Chemistry, 2025).
Values after ≈ are worked out from the molar mass of the structure shown. Positions of bridges follow the written chain, without caps; N, C: chain ends. Residues, ends and D or L forms follow the SMILES beside them.

Key:
E. faecium 12697 = assay type: cell-based, Enterococcus faecalis NCTC 12697 (E. faecium 12697); details: 12697, 18 h
Experimental: (§1) The minimal inhibitory concentration (MIC) and minimal bactericidal concentration (MBC) values of the peptides were determined by established protocols to evaluate their antimicrobial activities ([Lin et al., 2021]). The MIC value was the lowest concentration of a peptide that inhibits visible bacterial growth after incubating 18 h (CLSI standard). Once the MIC values were determined, an aliquot from the bacterial culture exposed to the peptide at or above its MIC value was inoculated on a Mueller Hinton agar (MHA) and was incubated at 37 for 18 h (CLSI standard). The MBC value was the lowest concentration of a peptide that kills 99.9% of bacteria. Antimicrobial activities of synthetic peptides were assessed by determination of MIC and MBC values using eight kinds of bacteria and yeast: Gram-positive bacteria, Staphylococcus aureus ATCC 6538 (S. aureus 6538), Methicillin-resistant Staphylococcus aureus NCTC 12493 (MRSA 12493), and Enterococcus faecalis NCTC 12697 (E. faecium 12697); Gram-negative bacteria, Escherichia coli ATCC 8739 (E. coli 8739), Pseudomonas aeruginosa ATCC CRM 9027 (P. aeruginosa 9027), Klebsiella pneumoniae ATCC 43816 (K. pneumoniae 43816), and Acinetobacter baumannii BAA 747 (A. baumannii 747); and pathogenic yeast, Candida albicans ATCC 10231 (C. albicans 10231).

[1] = test system: Pseudomonas aeruginosa ATCC CRM 9027; assay type: cell-based; details: ATCC CRM 9027, 18 h
Experimental: as §1

[2] = test system: Staphylococcus aureus ATCC 6538; assay type: cell-based; details: ATCC 6538, 18 h
Experimental: as §1

[3] = test system: Methicillin-resistant Staphylococcus aureus NCTC 12493; assay type: cell-based; details: NCTC 12493, 18 h
Experimental: as §1

[4] = test system: Candida albicans ATCC 10231; assay type: cell-based; details: ATCC 10231, 18 h
Experimental: as §1

[5] = test system: Klebsiella pneumoniae ATCC 43816; assay type: cell-based; details: ATCC 43816, 18 h
Experimental: as §1

[6] = test system: Acinetobacter baumannii BAA 747; assay type: cell-based; details: BAA 747, 18 h
Experimental: as §1

[7] = test system: Escherichia coli ATCC 8739; assay type: cell-based; details: ATCC 8739, 18 h
Experimental: as §1

HaCaT cells = assay type: cell-based, human
Experimental: Lung cancer cell line, H838 (ATCC, United States), breast cancer cell line, MCF7 (ATCC, United States), and human immortalized keratinocytes, HaCat (Caltag Medsystems, United Kingdom), were used in this experiment to test the anti-proliferation activity of peptides brevine-1pl and its four analogues. H838 cells were maintained in RPMI-1640 medium (Gibco, United Kingdom), whereas MCF-7 and HaCaT cells were cultured in DMEM medium (Gibco, United Kingdom), supplemented with 10% (v/v) fetal bovine serum (FBS, Gibco, United Kingdom) and 1% (v/v) penicillin-streptomycin (PS, Gibco, United Kingdom). Cells were seeded in 96-well plates at densities of 8,000 cells/well for H838 and MCF-7 and 10,000 cells/well for HaCaT, followed by overnight incubation at 37°C under 5% CO2 to allow adherence. Following attachment, cells were exposed to peptide solutions at final concentrations ranging from 10^–4 M to 10^–9 M. After 22 h of treatment, 0.5 mg/ml MTT solution was added to each well and incubated at 37°C for 4 h. The medium was then aspirated, and 100 μl of DMSO was added to solubilize formazan crystals. Plates were agitated for 15 min in a shaking incubator, and absorbance was measured at 570 nm using a Synergy HT microplate reader. […] Cell viability (%) was calculated using the formula: Viability (%) = (ODtreated − ODblank)/(ODcontrol− ODblank) *100. […]

horse erythrocytes = assay type: cell-based
Experimental: The hemolytic activity of the peptides was assessed using horse erythrocytes. Horse erythrocytes were selected due to their similarity to human erythrocytes in membrane composition and widespread use in AMP studies for standardization. Following a previously established protocol ([Gao et al., 2016]). Peptide solutions with final concentrations ranging from 1 µM to 128 µM were incubated with 2% horse erythrocytes at 37°C for 2 h. Triton X-100 (1%) served as the positive control, while sterile PBS was used as the blank control. After that, the peptide-horse erythrocytes mixture was centrifuged at 930 g for 10 min, and the absorbance at 570 nm of the supernatant was measured. The hemolysis rate was calculated using the formal: Percentage Hemolysis = (Absorbance of sample − Absorbance of blank)/(Absorbance of Positive- Absorbance of Blank) × 100%

| Structure (SMILES) | MBC (E. faecium 12697) | MIC (E. faecium 12697) | MBC [1] | MIC [1] | MBC [2] | MIC [2] | MBC [3] | MIC [3] | MBC [4] | MIC [4] | MBC [5] | MIC [5] | MBC [6] | MIC [6] | MBC [7] | MIC [7] | Cytotoxicity toward normal HaCaT cells (in words) (HaCaT cells) | Hemolytic activity at 16 μM (in words) (horse erythrocytes) |
| --- | --- | --- | --- | --- | --- | --- | --- | --- | --- | --- | --- | --- | --- | --- | --- | --- | --- | --- |
| CC[C@H](C)[C@H](NC(=O)[C@H](CCCCN)NC(=O)[C@H](CCCCN)NC(=O)[C@H](CC(C)C)NC(=O)[C@@H](NC(=O)[C@H](CCCCN)NC(=O)[C@H](C)NC(=O)[C@H](C)NC(=O)[C@@H](NC(=O)CNC(=O)[C@H](C)NC(=O)[C@@H](NC(=O)[C@@H](NC(=O)[C@@H]1CCCN1C(=O)[C@H](Cc1ccccc1)NC(=O)[C@@H](N)Cc1ccccc1)[C@@H](C)CC)C(C)C)C(C)C)C(C)C)C(=O)N[C@@H](Cc1ccccc1)C(=O)N[C@H]1CSSC[C@@H](C(=O)O)NC(=O)[C@H](CCCCN)NC(=O)[C@H](CCCCN)NC(=O)[C@H](CO)NC(=O)[C@H]([C@@H](C)CC)NC(=O)[C@H]([C@@H](C)O)NC1=O [brevinin-1pl] (H-FFPIVAGVAAKVLKKIFCTISKKC-OH; disulfide 18-24) | 4 µM (≈ 10.4 µg/mL) | 4 µM (≈ 10.4 µg/mL) | 16 µM (≈ 41.8 µg/mL) | 8 µM (≈ 20.9 µg/mL) | 2 µM (≈ 5.22 µg/mL) | 2 µM (≈ 5.22 µg/mL) | 2 µM (≈ 5.22 µg/mL) | 2 µM (≈ 5.22 µg/mL) | > 128 µM | > 128 µM | 8 µM (≈ 20.9 µg/mL) | 8 µM (≈ 20.9 µg/mL) | 16 µM (≈ 41.8 µg/mL) | 8 µM (≈ 20.9 µg/mL) | 4 µM (≈ 10.4 µg/mL) | 4 µM (≈ 10.4 µg/mL) | – | – |
| CC[C@H](C)[C@H](NC(=O)[C@H](CCCCN)NC(=O)[C@H](CCCCN)NC(=O)[C@H](CC(C)C)NC(=O)[C@@H](NC(=O)[C@H](CCCCN)NC(=O)[C@H](C)NC(=O)[C@H](C)NC(=O)[C@@H](NC(=O)CNC(=O)[C@H](C)NC(=O)[C@@H](NC(=O)[C@H](CCCCN)NC(=O)[C@@H]1CCCN1C(=O)[C@H](Cc1ccccc1)NC(=O)[C@@H](N)Cc1ccccc1)C(C)C)C(C)C)C(C)C)C(=O)N[C@@H](Cc1ccccc1)C(=O)N[C@H]1CSSC[C@@H](C(=O)O)NC(=O)[C@H](CCCCN)NC(=O)[C@H](CCCCN)NC(=O)[C@H](CO)NC(=O)[C@H]([C@@H](C)CC)NC(=O)[C@H]([C@@H](C)O)NC1=O [brevinin-1pl-6K] (H-FFPKVAGVAAKVLKKIFCTISKKC-OH; disulfide 18-24) | 16 µM (≈ 42 µg/mL) | 16 µM (≈ 42 µg/mL) | 8 µM (≈ 21 µg/mL) | 8 µM (≈ 21 µg/mL) | 4 µM (≈ 10.5 µg/mL) | 4 µM (≈ 10.5 µg/mL) | 4 µM (≈ 10.5 µg/mL) | 4 µM (≈ 10.5 µg/mL) | > 128 µM | > 128 µM | 8 µM (≈ 21 µg/mL) | 8 µM (≈ 21 µg/mL) | 16 µM (≈ 42 µg/mL) | 16 µM (≈ 42 µg/mL) | 4 µM (≈ 10.5 µg/mL) | 4 µM (≈ 10.5 µg/mL) | – | – |
| CC[C@H](C)[C@H](NC(=O)[C@H](CCCCN)NC(=O)[C@H](CCCCN)NC(=O)[C@H](CC(C)C)NC(=O)[C@@H](NC(=O)[C@H](CCCCN)NC(=O)[C@H](C)NC(=O)[C@H](C)NC(=O)[C@@H](NC(=O)CNC(=O)[C@H](C)NC(=O)[C@@H](NC(=O)[C@@H](NC(=O)[C@@H]1CCCN1C(=O)[C@H](Cc1ccccc1)NC(=O)[C@@H](N)Cc1ccccc1)[C@@H](C)CC)C(C)C)C(C)C)C(C)C)C(=O)N[C@@H](Cc1ccccc1)C(=O)N[C@H]1CSSC[C@@H](C(=O)O)NC(=O)[C@H](CCCNC(=N)N)NC(=O)[C@H](CCCNC(=N)N)NC(=O)[C@H](CO)NC(=O)[C@H]([C@@H](C)CC)NC(=O)[C@H]([C@@H](C)O)NC1=O [brevinin-1pl-2R] (H-FFPIVAGVAAKVLKKIFCTISRRC-OH; disulfide 18-24) | 4 µM (≈ 10.7 µg/mL) | 4 µM (≈ 10.7 µg/mL) | 8 µM (≈ 21.3 µg/mL) | 8 µM (≈ 21.3 µg/mL) | 2 µM (≈ 5.33 µg/mL) | 2 µM (≈ 5.33 µg/mL) | 2 µM (≈ 5.33 µg/mL) | 2 µM (≈ 5.33 µg/mL) | > 128 µM | > 128 µM | 8 µM (≈ 21.3 µg/mL) | 8 µM (≈ 21.3 µg/mL) | 16 µM (≈ 42.7 µg/mL) | 8 µM (≈ 21.3 µg/mL) | 4 µM (≈ 10.7 µg/mL) | 4 µM (≈ 10.7 µg/mL) | – | – |
| CC[C@H](C)[C@H](NC(=O)[C@H](CCCNC(=N)N)NC(=O)[C@H](CCCNC(=N)N)NC(=O)[C@H](CC(C)C)NC(=O)[C@@H](NC(=O)[C@H](CCCNC(=N)N)NC(=O)[C@H](C)NC(=O)[C@H](C)NC(=O)[C@@H](NC(=O)CNC(=O)[C@H](C)NC(=O)[C@@H](NC(=O)[C@@H](NC(=O)[C@@H]1CCCN1C(=O)[C@H](Cc1ccccc1)NC(=O)[C@@H](N)Cc1ccccc1)[C@@H](C)CC)C(C)C)C(C)C)C(C)C)C(=O)N[C@@H](Cc1ccccc1)C(=O)N[C@H]1CSSC[C@@H](C(=O)O)NC(=O)[C@H](CCCNC(=N)N)NC(=O)[C@H](CCCNC(=N)N)NC(=O)[C@H](CO)NC(=O)[C@H]([C@@H](C)CC)NC(=O)[C@H]([C@@H](C)O)NC1=O [brevinin-1pl-5R] (H-FFPIVAGVAARVLRRIFCTISRRC-OH; disulfide 18-24) | 2 µM (≈ 5.5 µg/mL) | 2 µM (≈ 5.5 µg/mL) | 16 µM (≈ 44 µg/mL) | 16 µM (≈ 44 µg/mL) | 2 µM (≈ 5.5 µg/mL) | 2 µM (≈ 5.5 µg/mL) | 2 µM (≈ 5.5 µg/mL) | 2 µM (≈ 5.5 µg/mL) | > 128 µM | > 128 µM | 16 µM (≈ 44 µg/mL) | 16 µM (≈ 44 µg/mL) | 32 µM (≈ 88 µg/mL) | 16 µM (≈ 44 µg/mL) | 8 µM (≈ 22 µg/mL) | 8 µM (≈ 22 µg/mL) | – | – |
| CC[C@H](C)[C@H](NC(=O)[C@H](Cc1c[nH]cn1)NC(=O)[C@H](Cc1c[nH]cn1)NC(=O)[C@H](CC(C)C)NC(=O)[C@@H](NC(=O)[C@H](Cc1c[nH]cn1)NC(=O)[C@H](C)NC(=O)[C@H](C)NC(=O)[C@@H](NC(=O)CNC(=O)[C@H](C)NC(=O)[C@@H](NC(=O)[C@@H](NC(=O)[C@@H]1CCCN1C(=O)[C@H](Cc1ccccc1)NC(=O)[C@@H](N)Cc1ccccc1)[C@@H](C)CC)C(C)C)C(C)C)C(C)C)C(=O)N[C@@H](Cc1ccccc1)C(=O)N[C@H]1CSSC[C@@H](C(=O)O)NC(=O)[C@H](CCCCN)NC(=O)[C@H](CCCCN)NC(=O)[C@H](CO)NC(=O)[C@H]([C@@H](C)CC)NC(=O)[C@H]([C@@H](C)O)NC1=O [brevinin-1pl-3H] (H-FFPIVAGVAAHVLHHIFCTISKKC-OH; disulfide 18-24) | 32 µM (≈ 84.4 µg/mL) | 16 µM (≈ 42.2 µg/mL) | 64 µM (≈ 169 µg/mL) | 64 µM (≈ 169 µg/mL) | 8 µM (≈ 21.1 µg/mL) | 8 µM (≈ 21.1 µg/mL) | 4/4 µM | – | > 128 µM | 64 µM (≈ 169 µg/mL) | 64 µM (≈ 169 µg/mL) | 32 µM (≈ 84.4 µg/mL) | > 128 µM | > 128 µM | 32 µM (≈ 84.4 µg/mL) | 32 µM (≈ 84.4 µg/mL) | low cytotoxicity | low hemolytic activity |
